Residues, ends and D or L forms follow the SMILES beside them.
Assays:
Assay type in all cases: physicochemical
[1] = Angle of rupture (Multi Tester MT-1001T); conditions: crystal powder, after three impacts
Description: The angle of rupture refers to an angle formed by a generating line of a cone, formed when a given impact is indirectly applied to a cone formed with a powder by allowing the powder to gently fall onto the horizontal plane through a kind of funnel, and a horizontal plane.
[Specific Example of Measurement Method for Angle of Rupture]
The operation is repeated for three times. Angles are read at three sites by a method similar to the measurement method for the angle of repose, and an arithmetic mean value of the angles is determined to be the angle of rupture.

[2] = Dense specific volume of crystals (after tapping the cylinder 100 times); conditions: crystal powder, after tapping 100 times
Experimental: The dense specific volume refers to a value obtained by dividing volume of a powder by the mass of the powder, when a container is filled with the powder and the mass of the powder is measured and then a given impact is applied to the container. The dense specific volume can be measured by a method comprising: dropping a crystal to a 50 mL glass measuring cylinder via a two-stage glass funnel to make the volume of the crystal to be about 45 mL; measuring the weight of the crystal; then tapping the measuring cylinder up and down for 100 times; and measuring the volume occupied by the crystal. A value obtained by dividing the measured volume of the crystal by the weight thereof is determined to be the dense specific volume.

[3] = Loose specific volume of crystals (50 mL measuring cylinder, two-stage funnel); conditions: crystal powder
Experimental: The loose specific volume refers to a value obtained by dividing volume occupied by a powder by the mass of the powder when a container is filled with the powder and the mass of the powder is measured. A crystal with a low loose specific volume is excellent in filling properties, and easy to handle in various processing steps, and also its transportation cost is low. Therefore, the loose specific volume is preferably low. The loose specific volume can be measured by a method comprising: dropping crystals to a 50 mL glass measuring cylinder via a two-stage glass funnel to make the volume of the crystal to be about 45 mL, and measuring the weight of the crystals. A value obtained by dividing the measured volume of the crystal by the weight is determined to be the loose specific volume.

[4] = Angle of repose (Multi Tester MT-1001T); conditions: crystal powder, sieve 1.18 mm, vibration width 0.7 to 0.8 mm
Experimental: The angle of repose refers to an angle formed by a generating line of a cone formed with a powder when the powder is allowed to gently fall onto the horizontal plane through a kind of funnel and a horizontal plane.
[Measurement Conditions for Angle of Repose]
Vibration width: 0.7 to 0.8 mm
The angle-of-repose table is rotated without being given vibration, angles are read at three sites, and an arithmetic mean value of the angles is determined to be the angle of repose.

[5] = Drying loss (water content of crystal by thermal analysis, TG/DTA); conditions: water content in the crystals as loss on drying of the thermal analysis
Experimental: The crystal of L-alanyl-L-glutamine can be confirmed to be a crystal of nonhydrate when the water content, which is measured by using a thermal analysis according to a method described in the following measurement example, is generally 3.0 wt % or less, preferably 2.5 wt % or less, and more preferably 2.0 wt % or less.
[Measurement Example of Water Content of Crystal according to Thermal Analysis]
Used equipment: EXSTAR 6000 TG/DTA 6200 (manufactured by Seiko Instruments Inc.)
Measurement conditions: Temperature increases from 20° C. to 30° C. at 20° C./min→Hold for 15 minutes at 30° C.→Temperature increases from 30° C. to 250° C. at 5° C./min
Nitrogen flow rate: 300 mL/min
About the known crystal obtained by the method described in Japanese Patent No. 4931801 and the crystals of L-alanyl-L-glutamine nonhydrate of the present invention obtained in Examples 10 to 12, the results, which measured in terms of the loose specific volume, the dense specific volume, the angle of repose, the angle of rupture, and the water content in the crystals as loss on drying of the thermal analysis, are shown in Table 17.

| Structure (SMILES) | Angle of rupture [1] [°] | Dense specific volume [2] [mL/g] | Loose specific volume [3] [mL/g] | Angle of repose [4] [°] | Drying loss [5] [%] |
| --- | --- | --- | --- | --- | --- |
| CCO.C[C@H](N)C(=O)N[C@@H](CCC(N)=O)C(=O)O [Example 1, L-alanyl-L-glutamine n-ethanolate] (H-Ala-Gln-OH) | 34.6 | 2.08 | 2.55 | 39.7 | – |
| CCO.C[C@H](N)C(=O)N[C@@H](CCC(N)=O)C(=O)O [Example 2 (95° C. vacuum drying), L-alanyl-L-glutamine n-ethanolate] (H-Ala-Gln-OH) | 35.0 | 1.88 | 2.47 | 41.2 | – |
| CCO.C[C@H](N)C(=O)N[C@@H](CCC(N)=O)C(=O)O [Example 4 (25° C. vacuum drying), L-alanyl-L-glutamine n-ethanolate] (H-Ala-Gln-OH) | 35.1 | 2.32 | 3.23 | 39.4 | – |
| CCO.C[C@H](N)C(=O)N[C@@H](CCC(N)=O)C(=O)O [Example 4 (95° C. vacuum drying), L-alanyl-L-glutamine n-ethanolate] (H-Ala-Gln-OH) | 38.6 | 2.21 | 3.61 | 42.5 | – |
| C[C@H](N)C(=O)N[C@@H](CCC(N)=O)C(=O)O [Example 5, L-alanyl-L-glutamine nonhydrate] (H-Ala-Gln-OH) | 34.7 | 2.28 | 2.60 | 40.2 | – |
| C[C@H](N)C(=O)N[C@@H](CCC(N)=O)C(=O)O.O.O [Example 7, L-alanyl-L-glutamine dihydrate] (H-Ala-Gln-OH) | 38.8 | 2.73 | 3.27 | 43.8 | – |
| C[C@H](N)C(=O)N[C@@H](CCC(N)=O)C(=O)O [Example 10, L-alanyl-L-glutamine nonhydrate] (H-Ala-Gln-OH) | 39.5 | 2.59 | 3.69 | 46.4 | 1.9 |
| C[C@H](N)C(=O)N[C@@H](CCC(N)=O)C(=O)O [Example 11, L-alanyl-L-glutamine nonhydrate] (H-Ala-Gln-OH) | 38.0 | 2.84 | 3.65 | 42.8 | 1.9 |
| C[C@H](N)C(=O)N[C@@H](CCC(N)=O)C(=O)O [Example 12, L-alanyl-L-glutamine nonhydrate] (H-Ala-Gln-OH) | 41.4 | 2.37 | 3.07 | 44.7 | 0.3 |
| C[C@H](N)C(=O)N[C@@H](CCC(N)=O)C(=O)O [Patent No. 4931801 (nonhydrate), L-alanyl-L-glutamine nonhydrate, reference compound] (H-Ala-Gln-OH) | 46.0 | 2.66 | 5.27 | 50.9 | 0.2 |
